Measurements from patent publication US10106532B2, “Inhibitors of beta-hydroxylase for treatment of cancer” (MIDWESTERN UNIVERSITY, priority 2012, dated 2018).
Entries after “also recorded” stand apart in the source; their conditions may differ.

Key:
[1] = system: human HCC cell line FOCUS; test: subcutaneous xenograft of human hepatocellular carcinoma; type: in vivo, mouse; settings: 20 mg/kg per day
Description: The human HCC cell line FOCUS is known to be a highly aggressive tumor forming cell line in vivo. To investigate in vivo anti-tumor efficacy of the ASPH inhibitor, MO-1-1100 at 20 mg/kg per day was administered on 5 consecutive days for 2 weeks and every other day thereafter. […] Such findings indicate that any ASPH expressing human tumor are responsive to these specific β-hydroxylase inhibitors. These ASPH inhibitor compounds represent a class of anti-tumor agents that has substantial anti-tumor activity against a large number of solid human tumors known to have a dismal prognosis.

[2] = system: FOCUS cells; test: invasion assay using matrigel coated membrane; type: cell-based, human; settings: 6 hours, compared to DMSO control
Description: (§1) The β-hydroxylase activity is required for ASPH to mediate its effects on cell motility. Directional motility was measured using Boyden chamber-type culture inserts equipped with porous membranes. FOCUS cells were pretreated with 5 μM of MO-1-1100 and MO-1-500 β-hydroxylase inhibitor for 24 hours, and then placed into the upper chamber. Migration was allowed to proceed for 30 min. ATPLite was used to quantify viable cell density. The cells in the upper well and upper surface of membrane reflects the number of non-migrating cells, luminescence measured at the bottom surface of the membrane reflects the number of migrating and non-adherent cells and luminescence measured in the bottom well was reflect migrating and non-adherent cells. […] Cell invasiveness was assessed by invasion assay using matrigel coated membrane, in which cells were allowed to proceed for 6 hours; those found adhered on the bottom surface of membrane were regarded as invading cells.

[3] = system: NIH 3T3 cells; test: cell viability; type: cell-based, mouse; settings: 5 μM, NIH 3T3 cells with no expression of ASPH
[4] = system: FOCUS cells; test: directional motility, Boyden chamber-type culture inserts; type: cell-based, human; settings: 5 μM pretreatment for 24 hours, migration 30 min
Description: as §1

Question: With NC1=C(OS(=O)(=O)Cc2ccccc2)C(=O)C(c2ccc(Cl)cc2)O1 (racemic) [MO-1-1100] as the molecule, how does the “signs of wasting or other adverse effects relative to control mice” value [1] read?
Answer: None of the MO-1-1100 treated mice showed signs

Question: And the tolerability [1]?
Answer: tolerated well

Question: What about the “HCC subcutaneous xenograft growth” value ([1]; 5 consecutive days for 2 weeks and every other day thereafter) of the same molecule?
Answer: significantly reduced; also recorded: strikingly reduces

Question: What about the “tumor volumes reduced, average, compared to control mice” value ([1]; day 12 following treatment) of the same molecule?
Answer: 31.7%

Question: And the invasiveness [2]?
Answer: significantly reduced; also recorded: significantly inhibited

Question: And the decreased cell viability [3]?
Answer: not

Question: What about the “cell migration / motility” value [4] of the same molecule?
Answer: significantly inhibited

Question: What about the “migrating and adherent cells” value [4] of the same molecule?
Answer: significantly reduced

Question: What about the “population of non-adherent cells” value [4] of the same molecule?
Answer: unchanged

Question: And the total migrated cells [4]?
Answer: reduced
